The values that follow come from patent US6162925A, “Antibiotic for methicillin resistant bacteria” (Research Corporation Tech., Inc., priority 1999, dated 2000).

The nature of series [1]: Antibiotic activity by bioassay against authentic TAN-1057 A/B. Type of series: cell-based. Conditions: compared with authentic TAN-1057 A/B (Takeda). How it is done: To a solution of 29 (40 mg, 0.045 mmol, 1.0 eq) in MeOH (1.5 mL)/CH2 Cl2 (0.5 mL) was added PdCl2 (40 mg). The reaction flask was degassed and charged with H2 (1 atm). The mixture was stirred for 30 min. The mixture was then purged with nitrogen, and filtered to remove the catalyst. The filtrate was concentrated and dried in vacuo to give a 2HCl salt of TAN-1057 A/B (1/2) (1:1, 20 mg, 100% yield) as an amorphous solid. This product was identical in mobility by HPLC, mnr and antibiotic activity by bioassay to authentic TAN-1057 A/B (Takeda). ^1 HNMR (300 MHz, D2 O): δ1.77 (4H, m); 2.85 (1H, dd, J=18, 9.3 Hz); 3.00 (1H, dd, J=18, 4.0 Hz); 3.17 (3H, s); 3.27 (2H, t, J=6.0 Hz); 3.70 (1H, m); 3.99 (2H, m); 5.14 (1H, dd, J=12, 8.5 Hz) ppm; IR (KBr pellet): 3350, 3179, 2955, 1696, 1622, 1395, 1205, 1135 cm^1. MS (ES^+): Calcd. (C13 H25 N9 O3 +H)=356.2, Found (M+H)=356.4.

In series [2] the test system is Staphylococcus aureus ATCC 29213. In words: MIC, broth microdilution (NCCLS), S. aureus ATCC 29213. It is filed as cell-based. Conditions: ATCC29213, S. aureus ATCC 29213, reference strain, 35° C., 20 h, read-out: Minimal Inhibitory Concentration (MIC). As to the method:
(§1) Test compounds were assayed against Staphylococcus aureus FDA 209P by the 10 fold agar disc diffusion assay on BHI-plates at pH=7 and pH=9 in accordance with the procedure from the National Committee for Clinical Laboratory Standards 1989. Susceptibility testing. A panel of 16 bacteria was used to evaluate the antimicrobial activity of the compounds (Table 2). The MIC of each antimicrobial agent was determined using a microdilution method according to NCCLS standards^1. Serial twofold dilutions of antibiotics were prepared in Mueller-Hinton broth (Difco Laboratories, Detroit, Mich.). Bacteria were grown to early log phase at 35° C. (1 hours) in Mueller-Hinton broth and cultures were diluted to achieve a final inoculum of 5×10^5 CFU per ml. Microtiter plates were incubated at 35° C. for 20 h and then were read using a Thermomax microplate reader (Molecular Devices, Sunnyvale, Calif.) and a microtiter plate reading mirror. The MIC was defined as the lowest concentration of antibiotic which inhibited the development of visible growth at the end of the incubation period. The standard reference strains were Staphyloccocus aureus ATCC […], Enterococcus faecalis ATCC 29212, E. faecium ATCC 35667, Escherichia coli ATCC 25922, and Pseudomonas aeruginosa ATCC 27853. Imipenem and vancomycin were used as antibiotic controls and values for reference strains were in accordance with the NCCLS.
Staphylococcus ATCC Reference strain
On the technique in general: Broth dilution looks for growth in wells or tubes with falling amounts of substance.

Series [3] deals with Staphylococcus aureus COL8A. In words: MIC, broth microdilution (NCCLS), S. aureus COL8A. Conditions: 20 h, read-out: Minimal Inhibitory Concentration (MIC). It is filed as cell-based. As to the method:
as §1
(§2) Staphylococcus Methicillin
aureus COL8A susceptible, […]

The subject of series [4] is Staphylococcus aureus PC1. In words: MIC, broth microdilution (NCCLS), S. aureus PC1. It is filed as cell-based. Conditions: S. aureus PC1, Type A βlactamase hyperproducer, 35° C., 20 h, read-out: Minimal Inhibitory Concentration (MIC). How it is done:
as §1
Staphylococcus Type A βlactamase
aureus PC1 hyperproducer

The test system of series [5] is Staphylococcus aureus sa ATCC 13709. The series is described as follows: MIC, broth microdilution (NCCLS), S. aureus sa ATCC 13709. It is filed as cell-based. Conditions: ATCC13709, S. aureus sa ATCC 13709, Smith strain, 35° C., 20 h, read-out: Minimal Inhibitory Concentration (MIC). As to the method: as §1
For series [6], the system named is Staphylococcus aureus COL. In words: MIC, broth microdilution (NCCLS), S. aureus COL. It is filed as cell-based. Conditions: S. aureus COL, methicillin resistant, β-lactamase negative, 35° C., 20 h, read-out: Minimal Inhibitory Concentration (MIC). As to the method: as §1, §2
aureus COL resistant, β-

The subject of series [7] is Staphylococcus aureus 76. In words: MIC, broth microdilution (NCCLS), S. aureus 76. Conditions: Staphylococcus aureus; S. aureus 76, methicillin resistant, β-lactamase positive; 35° C., 20 h; read-out: Minimal Inhibitory Concentration (MIC). Type of series: cell-based. How it is done:
as §1, §2

The subject of series [8] is Staphylococcus aureus ATCC 33593. The series is described as follows: MIC, broth microdilution (NCCLS), S. aureus ATCC 33593. Conditions: ATCC33593, S. aureus ATCC 33593, methicillin resistant, β-lactamase positive, 35° C., 20 h, read-out: Minimal Inhibitory Concentration (MIC). It is filed as cell-based. As to the method:
as §1
Staphylococcus ATCC Methicillin
aureus ATCC 33593 resistant, β-

For series [9], the system named is Staphylococcus aureus sa201. The series is described as follows: MIC, broth microdilution (NCCLS), S. aureus sa201. Type of series: cell-based. Conditions: S. aureus sa201, clinical isolate Spain, methicillin resistant, β-lactamase positive, 35° C., 20 h, read-out: Minimal Inhibitory Concentration (MIC). How it is done:
as §1
Staphylococcus Clinical isolate,
aureus sa201 Spain resistant, β-

Series [10] relates to Staphylococcus haemolyticus UA281. In words: MIC, broth microdilution (NCCLS), S. haemolyticus UA281. It is filed as cell-based. Conditions: S. haemolyticus UA281, methicillin resistant, 35° C., 20 h, read-out: Minimal Inhibitory Concentration (MIC). How it is done: as §1, §2
haemolyticus UA281 resistant

Series [11] deals with Enterococcus faecalis ATCC 29212. In words: MIC, broth microdilution (NCCLS), E. faecalis ATCC 29212. It is filed as cell-based. Conditions: ATCC29212, E. faecalis ATCC 29212, reference strain, 35° C., 20 h, read-out: Minimal Inhibitory Concentration (MIC). As to the method:
as §1
(§3) Enterococcus ATCC Reference strain

Series [12] has as its system Enterococcus faecium ATCC 35667. In words: MIC, broth microdilution (NCCLS), E. faecium ATCC 35667. Conditions: ATCC35667, E. faecium ATCC 35667, reference strain, 35° C., 20 h, read-out: Minimal Inhibitory Concentration (MIC). It is filed as cell-based. As to the method: as §1, §3
Series [13] has as its system Enterococcus faecium BM4147. In words: MIC, broth microdilution (NCCLS), E. faecium BM4147. Conditions: E. faecium BM4147, vancomycin resistant, vanA, 35° C., 20 h, read-out: Minimal Inhibitory Concentration (MIC). It is filed as cell-based. How it is done: as §1
Enterococcus Vancomycin
faecium BM4147 resistant, vanA

Series [14] concerns Enterococcus faecium efm040. The series is described as follows: MIC, broth microdilution (NCCLS), E. faecium efm040. Conditions: E. faecium efm040, clinical isolate U.S.A., ampicillin resistant, 35° C., 20 h, read-out: Minimal Inhibitory Concentration (MIC). Type of series: cell-based. How it is done: as §1
Enterococcus Clinical isolate,
faecium efm040 U.S.A. resistant

Series [15] concerns Escherichia coli ATCC 25922. The series is described as follows: MIC, broth microdilution (NCCLS), E. coli ATCC 25922. It is filed as cell-based. Conditions: ATCC25922, E. coli ATCC 25922, reference strain, 35° C., 20 h, read-out: Minimal Inhibitory Concentration (MIC). As to the method: as §1
Series [16] relates to Pseudomonas Aeruginosa ATCC 27853. The series is described as follows: MIC, broth microdilution (NCCLS), P. aeruginosa ATCC 27853. It is filed as cell-based. Conditions: ATCC27853, P. aeruginosa ATCC 27853, reference strain, 35° C., 20 h, read-out: Minimal Inhibitory Concentration (MIC). How it is done: as §1
The subject of series [17] is MRSA. Conditions: cited from earlier work.
Series [18] relates to Gram-positive and Gram-negative bacteria. Conditions: S- versus R-configuration in the heterocyclic portion; cited from earlier work.
The conditions of series [19]: cited from earlier work.
The conditions of series [20]: cited from earlier work. This is another data set of the same source.
The nature of series [21]: Stability in 0.1 M phosphate buffer pH=5. It is filed as physicochemical. Conditions: 0.1 M phosphate buffer at pH=5. How it is done:
Compound 36 (10 mg, 0.012 mmol) was treated with anisole (0.1 mL) and TFA (1.0 mL) at 0° C. The mixture was stirred for 1 h at room temperature, concentrated and purified by PTLC (silica gel, CH2 Cl2 : MeOH, 6:1) to give 6.0 mg of a semi-solid. To a solution of this substance (6 mg, 0.0066 mmol, 1.0 eq) in MeOH (1.0 mL)/CH2 Cl2 (0.5 mL) was added PdCl2 (8.0 mg) After degassing with N2, the reaction mixture was charged with H2 (1 atm.) and the mixture was hydrogenated for 10 min. The mixture was then purged with nitrogen, and filtered to remove the catalyst. The filtrate was concentrated and dried in vacuo to give a 2HCl salt of TAN-1057 C/D (1:1, 3 mg ~100% yield) as an amorphous solid. ^1 H NMR (300 MHz, DMSO-d6 vs TMS): δ1.51 (4H, m); 2.82 (3H, s); 2.70-2.90 (2H, m); 3.09 (2H, m); 3.43 (1H, m); 3.79 (2H, m); 4.66 (1/2H, m); 4.75 (1/2H, m); 7.26 (6H, m); 7.86 (1H, br); 8.06 (1H, br); 8.70 (2H, br); 9.15 (1H, br); 10.35 (1H, br) ppm. MS (FAB): Calcd. for (C13 H25 N9 O3 +H)=356.2. Found: (M+H)=356.3; (M+2H)^++ =178.7.

Structures are written as SMILES. Converted amounts (≈) assume the structure as drawn.

As to `CN(C(=O)C[C@@H](N)CCCNC(=N)N)C1CNC(NC(N)=O)=NC1=O` (stereo partly shown) [TAN-1057 A/B, 3S,5'S/R-3-amino-6-[(aminoiminomethyl)amino]-N-[2-[(aminocarbonyl)amino]-1,4,5,6-tetrahydro-4-oxo-5-pyrimidinyl)-N-methyl-hexanamide], the “antibiotic activity by bioassay” value in series [1] was “identical”.
On to `CN(C(=O)C[C@@H](N)CCCNC(=N)N)[C@H]1CNC(NC(N)=O)=NC1=O` [TAN-1057A], for which the MIC in [2] is 16 µg/mL (≈ 45 µM); in series [3] it was 16 µg/mL (≈ 45 µM); in series [4], 8 µg/mL (≈ 22.5 µM); in [5], 16 µg/mL (≈ 45 µM); in series [6], 16 µg/mL (≈ 45 µM); in series [7] it was 16 µg/mL (≈ 45 µM). Besides, the MIC in series [8] was 16 µg/mL (≈ 45 µM); in series [9], 16 µg/mL (≈ 45 µM); in series [10], 32 µg/mL (≈ 90 µM); in series [11], 32 µg/mL (≈ 90 µM); in [12], 32 µg/mL (≈ 90 µM); in [13], 32 µg/mL (≈ 90 µM). The values for the MIC in [14], in series [15] and in series [16] were 128 µg/mL (≈ 360 µM), 256 µg/mL (≈ 720 µM) and 256 µg/mL (≈ 720 µM), respectively. Further, the “activity against MRSA” value in [17] is given as “potent activity against all of the MRSA strains evaluated”. In addition, in series [18], the “relative antibacterial activity of stereoisomers” value was “more active than TAN-1057 B and C”. The “comparison to vancomycin in mice” value in series [19] is “compare very favorably to vancomycin in mice”. Also, the hydrolysis result in series [20] (acidic and basic media, racemization of α-amino acid stereogenic center) was “occurs in both acidic and basic media”. In addition, in series [20] (basic aqueous solutions, hydrolytic opening of six-membered ring), the “loss of antibacterial activity in basic aqueous solutions” value is given as “gradually lost their antibacterial activities in basic aqueous solutions”.
As to `CN1C(=O)C[C@H](CCCNC(=N)N)NC(=O)C1CNC(=N)NC(N)=O` (stereo partly drawn) [TAN-1057 C/D, [[[[5-[3-[(aminoiminomethyl)amino]propyl]hexahydro-(2S/R,5S)-1-methyl-3,7-dioxo-1H-1,4-diazepin-2-yl]methyl]amino]iminomethyl]urea], in [21], the “reversion upon standing in phosphate buffer” value was “reverted to a mixture of 1 and 2”.
